{"source": "patent US9253984B2", "about": "“Herbicidal compositions comprising pyroxasulfone VII” (BASF SE, priority 2008, dated 2016)", "key": {"[1]": {"system": "Ambrosia artemisifolia (AMBEL, common ragweed)", "test": "greenhouse pre-emergence herbicidal activity", "format": "in vivo", "conditions": "read-out: observed % activity; for inhibition at 50 g/ha: 50 g ai/ha; for inhibition at 200 g/ha: 200 g ai/ha", "method": "(§1) The containers were irrigated gently to promote germination and growth and subsequently covered with transparent plastic hoods until plant had rooted.\n(§2) In the examples, the solvent used was water. […] In the examples, the solvent used was water.\n(§3) Dicamba was used as a commercial aqueous solution having an active ingredient concentration of 480 g/l.\n(§4) The test period extended over 21 days.\n(§5) The evaluation for the damage caused by the chemical compositions was carried out using a scale from 0 to 100%, compared to the untreated control plants. Here, 0 means no damage and 100 means complete destruction of the plants.\n(§6) The value E, which is to be expected if the activity of the individual compounds is just additive, was calculated using the method of S. R. Colby (1967) “Calculating synergistic and antagonistic responses of herbicide combinations”, Weeds 15, p. 22 ff. E=X+Y−(X·Y/100) where X=effect in percent using herbicide A at an application rate a; • Y=effect in percent using herbicide B at an application rate b; • E=expected effect (in %) of A+B at application rates a+b.\n(§7) If the value observed in this manner is higher than the value E calculated according to Colby, a synergistic effect is present."}, "[2]": {"system": "Helianthus annuus (HELAN, sunflower)", "test": "greenhouse pre-emergence herbicidal activity", "format": "in vivo", "conditions": "read-out: observed % activity; for inhibition at 25 g/ha: 25 g ai/ha; for inhibition at 50 g/ha: 50 g ai/ha; for inhibition at 100 g/ha: 100 g ai/ha; for inhibition at 200 g/ha: 200 g ai/ha", "method": "as §1, §2, §3, §4, §5, §6, §7"}, "[3]": {"system": "Abutilon theophrasti (ABUTH, velvetleaf)", "test": "greenhouse pre-emergence herbicidal activity", "format": "in vivo", "conditions": "read-out: observed % activity; for inhibition at 25 g/ha: 25 g ai/ha; for inhibition at 50 g/ha: 50 g ai/ha; for inhibition at 200 g/ha: 200 g ai/ha", "method": "as §1, §2, §3, §4, §5, §6, §7"}, "[4]": {"system": "Matricaria inermis (MATIN, scentless mayweed)", "test": "greenhouse pre-emergence herbicidal activity", "format": "in vivo", "conditions": "read-out: observed % activity; for inhibition at 50 g/ha: 50 g ai/ha; for inhibition at 200 g/ha: 200 g ai/ha", "method": "as §1, §2, §3, §4, §5, §6, §7"}, "[5]": {"system": "Xanthium strumarium (XANST, cocklebur)", "test": "greenhouse pre-emergence herbicidal activity", "format": "in vivo", "conditions": "read-out: observed % activity; for inhibition at 25 g/ha: 25 g ai/ha; for inhibition at 100 g/ha: 100 g ai/ha; for inhibition at 200 g/ha: 200 g ai/ha", "method": "as §1, §2, §3, §4, §5, §6, §7"}, "harmful plants": {"system": "harmful plants", "conditions": "known from Y. Yamaji et al., 2006; cited from earlier work"}, "[6]": {"system": "Polygonum convolvulus (POLCO, wild buckwheat)", "test": "greenhouse post-emergence herbicidal activity", "format": "in vivo", "conditions": "20 DAT", "from_the_text": "(§8) For the post-emergence treatment, the test plants were first grown to a height of 3 to 20 cm, depending on the plant habit, and only then treated. Here, the herbicidal compositions were suspended or emulsified in water as distribution medium and sprayed using finely distributing nozzles.\nas §2, §3, §4, §5, §6, §7"}, "[7]": {"system": "Setaria faberii (SETFA, giant foxtail)", "test": "greenhouse post-emergence herbicidal activity", "format": "in vivo", "conditions": "Setaria faberi, read-out: observed % activity; for inhibition at 50 g/ha: 50 g ai/ha; for inhibition at 100 g/ha: 100 g ai/ha", "from_the_text": "as §8, §2, §3, §4, §5, §6, §7"}, "[8]": {"system": "Ipomoea purpurea (PHBPU, tall morningglory)", "test": "greenhouse post-emergence herbicidal activity", "format": "in vivo", "conditions": "20 DAT", "from_the_text": "as §8, §2, §3, §4, §5, §6, §7"}, "[9]": {"system": "Setaria lutescens (SETLU, yellow foxtail)", "test": "greenhouse post-emergence herbicidal activity", "format": "in vivo", "conditions": "read-out: observed % activity; for inhibition at 13 g/ha: 13 g ai/ha; for inhibition at 50 g/ha: 50 g ai/ha", "from_the_text": "as §8, §2, §3, §4, §5, §6, §7"}, "[10]": {"system": "Echinochloa crus-galli (ECHCG, barnyardgrass)", "test": "greenhouse post-emergence herbicidal activity", "format": "in vivo", "conditions": "read-out: observed % activity; for inhibition at 13 g/ha: 13 g ai/ha; for inhibition at 100 g/ha: 100 g ai/ha", "from_the_text": "as §8, §2, §3, §4, §5, §6, §7"}, "[11]": {"system": "Alopecurus myosuroides (ALOMY, blackgrass)", "test": "greenhouse post-emergence herbicidal activity", "format": "in vivo", "conditions": "read-out: observed % activity; for inhibition at 13 g/ha: 13 g ai/ha; for inhibition at 50 g/ha: 50 g ai/ha", "from_the_text": "as §8, §2, §3, §4, §5, §6, §7"}}, "note": "Like-named read-outs stand apart in the source and are kept apart here."}
{"smiles": "Cn1nc(C(F)(F)F)c(CS(=O)(=O)C2=NOC(C)(C)C2)c1OC(F)F", "note": "[pyroxasulfone, 3-[5-(difluoromethoxy)-1-methyl-3-(trifluoromethyl)pyrazol-4-ylmethylsulfonyl]-4,5-dihydro-5,5-dimethyl-1,2-oxazole]", "values": [{"measurement": "inhibition at 50 g/ha", "setting": "[1]; 192 h, 8 DAT", "value": 50, "unit": "%"}, {"measurement": "inhibition at 50 g/ha", "setting": "[1]; 480 h, 20 DAT", "value": 80, "unit": "%"}, {"measurement": "inhibition at 25 g/ha", "setting": "[2]; 192 h, 8 DAT", "value": 0, "unit": "%"}, {"measurement": "inhibition at 50 g/ha", "setting": "[2]; 192 h, 8 DAT", "value": 0, "unit": "%"}, {"measurement": "inhibition at 25 g/ha", "setting": "[2]; 480 h, 20 DAT", "value": 0, "unit": "%"}, {"measurement": "inhibition at 50 g/ha", "setting": "[2]; 480 h, 20 DAT", "value": 0, "unit": "%"}, {"measurement": "inhibition at 25 g/ha", "setting": "[3]; 192 h, 8 DAT", "value": 50, "unit": "%"}, {"measurement": "inhibition at 50 g/ha", "setting": "[3]; 192 h, 8 DAT", "value": 50, "unit": "%"}, {"measurement": "inhibition at 25 g/ha", "setting": "[3]; 480 h, 20 DAT", "value": 80, "unit": "%"}, {"measurement": "inhibition at 50 g/ha", "setting": "[3]; 480 h, 20 DAT", "value": 98, "unit": "%"}, {"measurement": "inhibition at 50 g/ha", "setting": "[4]; 192 h, 8 DAT", "value": 20, "unit": "%"}, {"measurement": "inhibition at 50 g/ha", "setting": "[4]; 480 h, 20 DAT", "value": 85, "unit": "%"}, {"measurement": "inhibition at 25 g/ha", "setting": "[5]; 192 h, 8 DAT", "value": 0, "unit": "%"}, {"measurement": "inhibition at 25 g/ha", "setting": "[5]; 480 h, 20 DAT", "value": 0, "unit": "%"}, {"measurement": "post-emergence activity", "setting": "harmful plants", "value": "only poor post-emergence activity"}, {"measurement": "observed activity in % destruction 20 days after treatment", "setting": "[6]; 100 g ai/ha", "value": 55, "unit": "%"}, {"measurement": "inhibition at 50 g/ha", "setting": "[7]; 168 h, 7 DAT", "value": 65, "unit": "%"}, {"measurement": "inhibition at 50 g/ha", "setting": "[7]; 480 h, 20 DAT", "value": 90, "unit": "%"}, {"measurement": "observed activity in % destruction 20 days after treatment", "setting": "[8]; 13 g ai/ha", "value": 30, "unit": "%"}, {"measurement": "inhibition at 13 g/ha", "setting": "[9]; 168 h, 7 DAT", "value": 0, "unit": "%"}, {"measurement": "inhibition at 13 g/ha", "setting": "[9]; 480 h, 20 DAT", "value": 65, "unit": "%"}, {"measurement": "inhibition at 13 g/ha", "setting": "[10]; 168 h, 7 DAT", "value": 25, "unit": "%"}, {"measurement": "inhibition at 13 g/ha", "setting": "[10]; 480 h, 20 DAT", "value": 80, "unit": "%"}, {"measurement": "inhibition at 13 g/ha", "setting": "[11]; 168 h, 7 DAT", "value": 0, "unit": "%"}, {"measurement": "inhibition at 13 g/ha", "setting": "[11]; 480 h, 20 DAT", "value": 15, "unit": "%"}]}
{"smiles": "COc1c(Cl)ccc(Cl)c1C(=O)O", "note": "[dicamba]", "values": [{"measurement": "inhibition at 200 g/ha", "setting": "[1]; 192 h, 8 DAT", "value": 65, "unit": "%"}, {"measurement": "inhibition at 200 g/ha", "setting": "[1]; 480 h, 20 DAT", "value": 95, "unit": "%"}, {"measurement": "inhibition at 50 g/ha", "setting": "[2]; 192 h, 8 DAT", "value": 30, "unit": "%"}, {"measurement": "inhibition at 100 g/ha", "setting": "[2]; 192 h, 8 DAT", "value": 30, "unit": "%"}, {"measurement": "inhibition at 200 g/ha", "setting": "[2]; 192 h, 8 DAT", "value": 75, "unit": "%"}, {"measurement": "inhibition at 50 g/ha", "setting": "[2]; 480 h, 20 DAT", "value": 35, "unit": "%"}, {"measurement": "inhibition at 100 g/ha", "setting": "[2]; 480 h, 20 DAT", "value": 50, "unit": "%"}, {"measurement": "inhibition at 200 g/ha", "setting": "[2]; 480 h, 20 DAT", "value": 85, "unit": "%"}, {"measurement": "inhibition at 200 g/ha", "setting": "[3]; 192 h, 8 DAT", "value": 40, "unit": "%"}, {"measurement": "inhibition at 200 g/ha", "setting": "[3]; 480 h, 20 DAT", "value": 70, "unit": "%"}, {"measurement": "inhibition at 200 g/ha", "setting": "[4]; 192 h, 8 DAT", "value": 50, "unit": "%"}, {"measurement": "inhibition at 200 g/ha", "setting": "[4]; 480 h, 20 DAT", "value": 65, "unit": "%"}, {"measurement": "inhibition at 100 g/ha", "setting": "[5]; 192 h, 8 DAT", "value": 50, "unit": "%"}, {"measurement": "inhibition at 200 g/ha", "setting": "[5]; 192 h, 8 DAT", "value": 85, "unit": "%"}, {"measurement": "inhibition at 100 g/ha", "setting": "[5]; 480 h, 20 DAT", "value": 80, "unit": "%"}, {"measurement": "inhibition at 200 g/ha", "setting": "[5]; 480 h, 20 DAT", "value": 95, "unit": "%"}, {"measurement": "observed activity in % destruction 20 days after treatment", "setting": "[6]; 50 g ai/ha", "value": 80, "unit": "%"}, {"measurement": "inhibition at 50 g/ha", "setting": "[7]; 168 h, 7 DAT", "value": 25, "unit": "%"}, {"measurement": "inhibition at 100 g/ha", "setting": "[7]; 168 h, 7 DAT", "value": 25, "unit": "%"}, {"measurement": "inhibition at 50 g/ha", "setting": "[7]; 480 h, 20 DAT", "value": 0, "unit": "%"}, {"measurement": "inhibition at 100 g/ha", "setting": "[7]; 480 h, 20 DAT", "value": 0, "unit": "%"}, {"measurement": "observed activity in % destruction 20 days after treatment", "setting": "[8]; 200 g ai/ha", "value": 90, "unit": "%"}, {"measurement": "inhibition at 50 g/ha", "setting": "[9]; 168 h, 7 DAT", "value": 40, "unit": "%"}, {"measurement": "inhibition at 50 g/ha", "setting": "[9]; 480 h, 20 DAT", "value": 10, "unit": "%"}, {"measurement": "inhibition at 100 g/ha", "setting": "[10]; 168 h, 7 DAT", "value": 20, "unit": "%"}, {"measurement": "inhibition at 100 g/ha", "setting": "[10]; 480 h, 20 DAT", "value": 15, "unit": "%"}, {"measurement": "inhibition at 50 g/ha", "setting": "[11]; 168 h, 7 DAT", "value": 10, "unit": "%"}, {"measurement": "inhibition at 50 g/ha", "setting": "[11]; 480 h, 20 DAT", "value": 20, "unit": "%"}]}
